Experiment [1] concerns the target T1, S. mansoni TGR (Schistosoma mansoni, UniProt Q962Y6).
T1 construct: made in house
T1 sequence (Q962Y6 1-598): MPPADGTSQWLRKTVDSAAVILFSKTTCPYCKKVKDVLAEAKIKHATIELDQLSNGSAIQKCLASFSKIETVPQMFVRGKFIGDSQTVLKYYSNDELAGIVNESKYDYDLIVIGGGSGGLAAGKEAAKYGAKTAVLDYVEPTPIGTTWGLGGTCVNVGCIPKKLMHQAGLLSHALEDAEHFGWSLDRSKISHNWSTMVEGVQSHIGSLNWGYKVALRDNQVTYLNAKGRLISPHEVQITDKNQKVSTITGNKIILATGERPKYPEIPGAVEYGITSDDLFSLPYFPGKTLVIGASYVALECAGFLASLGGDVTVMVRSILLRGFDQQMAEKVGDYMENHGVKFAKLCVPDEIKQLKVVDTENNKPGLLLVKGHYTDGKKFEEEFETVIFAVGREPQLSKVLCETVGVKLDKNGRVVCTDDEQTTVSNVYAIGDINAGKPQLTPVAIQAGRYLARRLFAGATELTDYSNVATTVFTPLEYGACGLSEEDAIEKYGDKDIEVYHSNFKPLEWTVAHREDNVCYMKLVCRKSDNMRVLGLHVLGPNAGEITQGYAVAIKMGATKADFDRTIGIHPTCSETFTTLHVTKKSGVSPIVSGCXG
Nature of the experiment: S. mansoni TGR enzyme inhibition (DTNB reduction). The format is biochemical. The settings on record: 6 h preincubation (enzyme + 100 µM NADPH + compound).

Experiment [2] deals with S. mansoni adult worms. The experiment is described as follows: GSH/GSSG ratio in ex vivo adult worms. In kind it is cell-based. The settings on record: first data set (r117-133); for Ratio GSH/GSSG: baseline 55.82; for % Ratio GSH/GSSG: baseline = 100.
In experiment [3] the test system is S. mansoni newly transformed schistosomula (NTS). The experiment is described as follows: Schistosomicidal activity ex vivo, NTS (Cell Titer Glo). The format is cell-based. The conditions noted are these: for LD50 ex vivo S. mansoni NTS: 24 h exposure, Cell TiterGlo; for viability at 0.5 µM / viability at 1 µM / viability at 5 µM / viability at 10 µM / viability at 20 µM / viability at 30 µM: Schistosoma mansoni. Put shortly: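 NTS (240/well) in M199 with 5.5 mM D-glucose and 5% heat-inactivated FBS exposed to compounds in triplicate at <1% DMSO, 37 °C, 5% CO2. Viability from worm ATP by Cell Titer Glo at 24 or 72 h, as % of DMSO control; 5 µM AF positive control.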
A general note: Cellular ATP, detected with luciferase, serves as a proxy for viable cell number.

Where two headings read alike, the source gives them in different places.

In general, viability refers to the share of living cells, or the viability signal relative to a control. Consider `C[C@@H]1N=C(c2ccccc2Cl)c2cc([N+](=O)[O-])ccc2NC1=O` [MZM, meclonazepam, reference compound], for which the “S. mansoni TGR inhibition (%) at 66.7 µM” value in experiment [1] was “n.i.^e”. In addition, in experiment [2] (1 hr), the “Ratio GSH/GSSG” value was determined as 55.11 and the “% Ratio GSH/GSSG” value stood at 98.7253%. Also, in experiment [2] (3 hr), the “Ratio GSH/GSSG” value is 55.10 and the “% Ratio GSH/GSSG” value was 98.7201%. Besides, in experiment [3], the “LD50 ex vivo S. mansoni NTS” value was 13.7 ± 0.87 µM, the viability at 0.5 µM is 93.3%, the viability at 1 µM was found to be 87.2% and the viability at 5 µM was 64.8%. In experiment [3], this molecule came in with a viability at 10 µM of 57.8%, a viability at 20 µM of 43.9% and a viability at 30 µM of 35.2%.
For `O=C(C1CCCCC1)N1CC(=O)N2CCc3ccccc3C2C1` (stereo not drawn) [PZQ, praziquantel], in experiment [1], the “S. mansoni TGR inhibition (%) at 66.7 µM” value is “n.i.^e”. Besides, in experiment [2] (1 hr), the “Ratio GSH/GSSG” value is given as 55.34 and the “% Ratio GSH/GSSG” value turned out to be 99.1418%. In addition, in experiment [2] (3 hr), the “Ratio GSH/GSSG” value amounted to 55.09 and the “% Ratio GSH/GSSG” value was found to be 98.6979%. Besides, in experiment [3], the “LD50 ex vivo S. mansoni NTS” value came out at 27.1 ± 2.27 µM and the viability at 20 µM came out at 58.2%. Further, the viability at 0.5 µM in experiment [3] (S. mansoni NTS, Conc. 0.5 µM, read-out: % viability) worked out at 94.3%. Moreover, in experiment [3] (S. mansoni NTS, Conc. 1 µM, read-out: % viability), the viability at 1 µM worked out at 91.8%. Moreover, in experiment [3] (S. mansoni NTS, Conc. 5 µM, read-out: % viability), the viability at 5 µM worked out at 85.6%. In addition, the viability at 10 µM in experiment [3] (S. mansoni NTS, Conc. 10 µM, read-out: % viability) turned out to be 71.9%. Moreover, the viability at 30 µM in experiment [3] (S. mansoni NTS, Conc. 30 µM, read-out: % viability) was found to be 35.8%.

The values are drawn from publication PMC10287695, “Non-covalent inhibitors of thioredoxin glutathione reductase with schistosomicidal activity in vivo” (Nature Communications, 2023).
